Laboratory results published in US20080274987A1, “Novel alpha glucosidase activator, pulicarside 1” (HEJ Research Institute, priority 2006, published 2008).
Read-outs that look alike come from different tables or passages of the source.

Assays:
[1] = target: α-glucosidase (E.C.3.2.1.20); experiment: α-Glucosidase enzyme inhibition assay (PNP-G substrate, spectrophotometric); format: biochemical, Saccharomyces species
Method: (§1) α-Glucosidase (E.C.3.2.1.20) enzyme inhibition assay was performed according to the slightly modified method of Matsui et al. α-glucosidase (E.C.3.2.1.20) from Saccharomyces species, purchased from Wako Pure Chemical Industries Ltd. (Wako 076-02841). The enzyme inhibition was measured spectrophotometrically at pH 6.9 and at 37° C. using 0.7 mM p nitrophenyl-α-D-glucopyranoside (PNP-G) as a substrate and 500 m units/mL enzyme, in 50 mM sodium phosphate buffer containing 100 mM NaCl. […] The increment in absorption at 400 nm, due to the hydrolysis of PNP-G by α-glucosidase, was monitored continuously on microplate spectrophotometer (Spectra Max Molecular Devices, USA).
[T. Matsui, C. Yoshimoto, K. Osajima, T. Oki, and Y. Osajima. Biosci. Biotech. Biochem., 1996, 60, 2019].

α-glucosidase = experiment: Rate of α-glucosidase enzyme reaction as a function of incubation time and concentration of Compound 1; format: biochemical, Saccharomyces species
Method: as §1
Several unique observations were made during the studies conducted on Compound 1 activity. For example, it was observed that the enzyme generally looses its activity during the operational period. We have a set of experiment to see how the enzyme lost its activity with almost all activity gone within one hour. (Table 2).
As a result we conclude that the activity of Compound 1 is concentration dependent. The mechanism postulated here includes enhancement of stability of the enzyme to react with the substrate, which is not observed in negative control in the absence of this compound 1. From the structures it is clearly evidenced that the methylene-dioxy ring and as well as the sugar molecule is responsible for the enzyme activation. […] So the COO— group is playing a crucial role for the inhibitory effect on the enzyme and the gugar molecule and methylene-dioxy ring is responsible for the activation of the enzyme.

[2] = against α-glucosidase, pH 6.9, 37° C., 0.7 mM PNP-G, read-out: IC50 ± SEM
[3] = unit inferred, read-out: IC50 (inhibitory effect on the enzyme)

SMILES | IC50 ± SEM ([1]; against α-glucosidase, pH 6.9, 37° C., 0.7 mM PNP-G) | Rate of enzyme reaction (μM of alpha-glucose from the p-nitrophenyl at 400 nm) (α-glucosidase; 0.05 mM Compound 1, incubation 4 min) [µM] | Rate of enzyme reaction (μM of alpha-glucose from the p-nitrophenyl at 400 nm) (α-glucosidase; 0.05 mM Compound 1, incubation 24 min) [µM] | Rate of enzyme reaction (μM of alpha-glucose from the p-nitrophenyl at 400 nm) (α-glucosidase; 0.05 mM Compound 1, incubation 45 min) [µM] | Rate of enzyme reaction (μM of alpha-glucose from the p-nitrophenyl at 400 nm) (α-glucosidase; 0.05 mM Compound 1, incubation 66 min) [µM] | Rate of enzyme reaction (μM of alpha-glucose from the p-nitrophenyl at 400 nm) (α-glucosidase; 0.10 mM Compound 1, incubation 4 min) [µM] | Rate of enzyme reaction (μM of alpha-glucose from the p-nitrophenyl at 400 nm) (α-glucosidase; 0.10 mM Compound 1, incubation 24 min) [µM] | Rate of enzyme reaction (μM of alpha-glucose from the p-nitrophenyl at 400 nm) (α-glucosidase; 0.10 mM Compound 1, incubation 45 min) [µM] | Rate of enzyme reaction (μM of alpha-glucose from the p-nitrophenyl at 400 nm) (α-glucosidase; 0.10 mM Compound 1, incubation 66 min) [µM] | Rate of enzyme reaction (μM of alpha-glucose from the p-nitrophenyl at 400 nm) (α-glucosidase; 0.20 mM Compound 1, incubation 4 min) [µM] | Rate of enzyme reaction (μM of alpha-glucose from the p-nitrophenyl at 400 nm) (α-glucosidase; 0.20 mM Compound 1, incubation 24 min) [µM] | Rate of enzyme reaction (μM of alpha-glucose from the p-nitrophenyl at 400 nm) (α-glucosidase; 0.20 mM Compound 1, incubation 45 min) [µM] | Rate of enzyme reaction (μM of alpha-glucose from the p-nitrophenyl at 400 nm) (α-glucosidase; 0.20 mM Compound 1, incubation 66 min) [µM] | Rate of enzyme reaction (μM of alpha-glucose from the p-nitrophenyl at 400 nm) (α-glucosidase; 0.40 mM Compound 1, incubation 4 min) [µM] | Rate of enzyme reaction (μM of alpha-glucose from the p-nitrophenyl at 400 nm) (α-glucosidase; 0.40 mM Compound 1, incubation 24 min) [µM] | Rate of enzyme reaction (μM of alpha-glucose from the p-nitrophenyl at 400 nm) (α-glucosidase; 0.40 mM Compound 1, incubation 45 min) [µM] | Rate of enzyme reaction (μM of alpha-glucose from the p-nitrophenyl at 400 nm) (α-glucosidase; 0.40 mM Compound 1, incubation 66 min) [µM] | Effect on α-glucosidase enzymatic activity as compared to the negative control (α-glucosidase; at all the concentrations and time intervals) | IC50 [1, 2] [µM] | IC50 [1, 3] [µM]
CC1(C)OCC2(C[C@@]34CC[C@H]5[C@@](C)(CCC[C@@]5(C)C(=O)O[C@@H]5O[C@H](CO)[C@@H](O)[C@H](O)[C@H]5O)[C@@H]3CC[C@@H]2C4)O1 (single isomer, unassigned; ent-16) [Pulicarside (1), β-D-glucopyranosyl ent-16,17-acetonyl-(−)-kauran-19-oate] | Enhancer | 18.61 | 8.7 | 3.85 | 1.45 | 19.94 | 10.38 | 4.64 | 1.62 | 20.89 | 18.27 | 13.11 | 10.13 | 21.15 | 19.68 | 14.8 | 15.01 | enhanced the enzymatic activity |  | 
C[C@@]12CCC[C@@](C)(C(=O)O)[C@H]1CC[C@@]13C[C@@H](CC[C@H]12)[C@@](O)(CO)C3 (single isomer, unassigned; ent-16) [ent-16,17-dihydroxy-(−)-kauran-19-oic acid] |  |  |  |  |  |  |  |  |  |  |  |  |  |  |  |  |  |  | 62.2 | 62.2 ± 0.008
C[C@@]12CCC[C@@](C)(C(=O)O[C@@H]3O[C@H](CO)[C@@H](O)[C@H](O)[C@H]3O)[C@H]1CC[C@@]13C[C@@H](CC[C@H]12)[C@@](O)(CO)C3 [Paniculoside IV (2), paniculoside IV] |  |  |  |  |  |  |  |  |  |  |  |  |  |  |  |  |  |  | 407 ± 20 | 407 ± 20
